Assay results reported in the supplement of paper PMC10307832.

Legend:
Test in all cases: relative viability (nuclei count vs DMSO), 5 days (fraction); higher = more cells survive
RERF-LC-KJ = system: RERF-LC-KJ
Method in brief: (§1)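 After 5 days of treatment, lung cancer cells in 1536-well plates were fixed and stained in a single step (final 0.05% Triton X-100, 1% formaldehyde, 1 ug/ml Hoechst) and their nuclei counted on 4× images. Treatment had been applied by pin tool the day after seeding as one drug alone or as a fixed anchor-drug dose with five library-drug doses (not always all listed) in √10 steps. Relative viability is the nuclei count of treated wells divided by that of vehicle wells, and values are medians of duplicate plates.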

NCI-H1915 = system: NCI-H1915
Method in brief: as §1

ChaGo-K-1 = system: ChaGo-K-1
Method in brief: as §1

NCI-H1666 = system: NCI-H1666
Method in brief: as §1

LC-2-ad = system: LC-2-ad
Method in brief: as §1

PC-14 = system: PC-14
Method in brief: as §1

NCI-H661 = system: NCI-H661
Method in brief: as §1

NCI-H647 = system: NCI-H647
Method in brief: as §1

NCI-H23 = system: NCI-H23
Method in brief: as §1

NCI-H2405 = system: NCI-H2405
Method in brief: as §1

NCI-H2087 = system: NCI-H2087
Method in brief: as §1

NCI-H520 = system: NCI-H520
Method in brief: as §1

HCC-827 = system: HCC-827
Method in brief: as §1

NCI-H650 = system: NCI-H650
Method in brief: as §1

EPLC-272H = system: EPLC-272H
Method in brief: as §1

LCLC-97TM1 = system: LCLC-97TM1
Method in brief: as §1

NCI-H322M = system: NCI-H322M
Method in brief: as §1

COR-L 105 = system: COR-L 105
Method in brief: as §1

H3255 = system: H3255
Method in brief: as §1

NCI-H2126 = system: NCI-H2126
Method in brief: as §1

201T = system: 201T
Method in brief: as §1

NCI-H2347 = system: NCI-H2347
Method in brief: as §1

Compound: Oc1nc(-c2ccc(C(F)(F)F)cc2)nc2c1CSCC2 [XAV939] + CCNC(=O)c1noc(-c2cc(C(C)C)c(O)cc2O)c1-c1ccc(CN2CCOCC2)cc1 [Luminespib] (partner 0.01 µM)
- relative viability (RERF-LC-KJ; first compound 0.08 µM): 1.21
- relative viability (RERF-LC-KJ; first compound 0.253 µM): 1.06
- relative viability (RERF-LC-KJ; first compound 0.8 µM): 1.07
- relative viability (RERF-LC-KJ; first compound 2.53 µM): 0.844
- relative viability (NCI-H1915; first compound 0.08 µM): 1.11
- relative viability (NCI-H1915; first compound 0.253 µM): 0.449
- relative viability (NCI-H1915; first compound 0.8 µM): 0.849
- relative viability (NCI-H1915; first compound 2.53 µM): 0.741
- relative viability (ChaGo-K-1; first compound 0.08 µM): 0.586
- relative viability (ChaGo-K-1; first compound 0.253 µM): 0.384
- relative viability (ChaGo-K-1; first compound 0.8 µM): 0.508
- relative viability (ChaGo-K-1; first compound 2.53 µM): 0.523
- relative viability (NCI-H1666; first compound 0.08 µM): 1.07
- relative viability (NCI-H1666; first compound 0.253 µM): 0.666
- relative viability (NCI-H1666; first compound 0.8 µM): 0.981
- relative viability (NCI-H1666; first compound 2.53 µM): 0.848
- relative viability (LC-2-ad; first compound 0.08 µM): 1.2
- relative viability (LC-2-ad; first compound 0.253 µM): 0.938
- relative viability (LC-2-ad; first compound 0.8 µM): 0.973
- relative viability (LC-2-ad; first compound 2.53 µM): 0.853
- relative viability (PC-14; first compound 0.08 µM): 0.163
- relative viability (PC-14; first compound 0.253 µM): 0.174
- relative viability (PC-14; first compound 0.8 µM): 0.164
- relative viability (PC-14; first compound 2.53 µM): 0.179
- relative viability (NCI-H661; first compound 0.08 µM): 0.894
- relative viability (NCI-H661; first compound 0.253 µM): 0.892
- relative viability (NCI-H661; first compound 0.8 µM): 0.913
- relative viability (NCI-H661; first compound 2.53 µM): 0.933
- relative viability (NCI-H647; first compound 0.08 µM): 0.252
- relative viability (NCI-H647; first compound 0.253 µM): 0.173
- relative viability (NCI-H647; first compound 0.8 µM): 0.156
- relative viability (NCI-H647; first compound 2.53 µM): 0.143
- relative viability (NCI-H23; first compound 0.08 µM): 0.251
- relative viability (NCI-H23; first compound 0.253 µM): 0.214
- relative viability (NCI-H23; first compound 0.8 µM): 0.224
- relative viability (NCI-H23; first compound 2.53 µM): 0.221
- relative viability (NCI-H2405; first compound 0.08 µM): 0.657
- relative viability (NCI-H2405; first compound 0.253 µM): 0.673
- relative viability (NCI-H2405; first compound 0.8 µM): 0.599
- relative viability (NCI-H2405; first compound 2.53 µM): 0.588
- relative viability (NCI-H2087; first compound 0.08 µM): 0.165
- relative viability (NCI-H2087; first compound 0.253 µM): 0.128
- relative viability (NCI-H2087; first compound 0.8 µM): 0.152
- relative viability (NCI-H2087; first compound 2.53 µM): 0.142
- relative viability (NCI-H520; first compound 0.08 µM): 0.233
- relative viability (NCI-H520; first compound 0.253 µM): 0.243
- relative viability (NCI-H520; first compound 0.8 µM): 0.201
- relative viability (NCI-H520; first compound 2.53 µM): 0.204
- relative viability (HCC-827; first compound 0.08 µM): 0.743
- relative viability (HCC-827; first compound 0.253 µM): 0.739
- relative viability (HCC-827; first compound 0.8 µM): 0.587
- relative viability (HCC-827; first compound 2.53 µM): 0.396
- relative viability (NCI-H650; first compound 0.08 µM): 0.858
- relative viability (NCI-H650; first compound 0.253 µM): 0.75
- relative viability (NCI-H650; first compound 0.8 µM): 0.93
- relative viability (NCI-H650; first compound 2.53 µM): 0.745
- relative viability (EPLC-272H; first compound 0.08 µM): 0.954
- relative viability (EPLC-272H; first compound 0.253 µM): 0.361
- relative viability (EPLC-272H; first compound 0.8 µM): 0.317
- relative viability (EPLC-272H; first compound 2.53 µM): 0.184
- relative viability (LCLC-97TM1; first compound 0.08 µM): 0.977
- relative viability (LCLC-97TM1; first compound 0.253 µM): 0.763
- relative viability (LCLC-97TM1; first compound 0.8 µM): 0.835
- relative viability (LCLC-97TM1; first compound 2.53 µM): 0.765
- relative viability (NCI-H322M; first compound 0.08 µM): 1.06
- relative viability (NCI-H322M; first compound 0.253 µM): 0.808
- relative viability (NCI-H322M; first compound 0.8 µM): 0.86
- relative viability (NCI-H322M; first compound 2.53 µM): 0.552
- relative viability (COR-L 105; first compound 0.08 µM): 0.964
- relative viability (COR-L 105; first compound 0.253 µM): 0.742
- relative viability (COR-L 105; first compound 0.8 µM): 0.458
- relative viability (COR-L 105; first compound 2.53 µM): 0.763
- relative viability (H3255; first compound 0.08 µM): 1.09
- relative viability (H3255; first compound 0.253 µM): 0.879
- relative viability (H3255; first compound 0.8 µM): 0.804
- relative viability (H3255; first compound 2.53 µM): 0.907
- relative viability (NCI-H2126; first compound 0.08 µM): 0.985
- relative viability (NCI-H2126; first compound 0.253 µM): 0.843
- relative viability (NCI-H2126; first compound 0.8 µM): 0.869
- relative viability (NCI-H2126; first compound 2.53 µM): 0.733
- relative viability (201T; first compound 0.08 µM): 1.02
- relative viability (201T; first compound 0.253 µM): 0.994
- relative viability (201T; first compound 0.8 µM): 1.05
- relative viability (201T; first compound 2.53 µM): 0.877
- relative viability (NCI-H2347; first compound 0.08 µM): 0.419
- relative viability (NCI-H2347; first compound 2.53 µM): 0.248
